# Publication PMC11620506, “Inhibition of endocytic uptake of severe acute respiratory syndrome coronavirus 2 and endo-lysosomal acidification by diphenoxylate” (Antimicrobial Agents and Chemotherapy, 2024)
# Entries after “also recorded” stand apart in the source; their conditions may differ. Read-outs that look alike come from different tables or passages of the source.
# Assays:
# [1] = system: SARS-CoV-2 (original wild-type, hCoV-19/Korea/KCDC06/2020); experiment: microbe, parasite or virus in culture; type: cell-based; conditions: for EC50: Severe acute respiratory syndrome coronavirus 2, Vero cells, immunofluorescence images, n = 3, read-out: EC50, half maximal effective concentration to reduce SARS-CoV-2 spike protein expression by 50%
# [2] = cited from earlier work
# SARS-CoV-2 [3] = type: in vivo, mice
# SARS-CoV-2 [4] = type: cell-based; conditions: 20 µM, Vero cells; for nuclei numbers compared to the control: DAPI
# in vitro = conditions: African green monkey
# Method: Following the method described earlier, Vero cells in 96 wells were treated with threefold serial dilutions of each compound, ranging from 100 µM to 5 nM, both with and without SARS-CoV-2 infection at 0.01 MOI. […] Concurrently, the viability of mock-infected cells was assessed using a 3-(4,5-dimethylthiazol-2-yl)−2,5-diphenyltetrazolium bromide (MTT) assay to determine the 50% cytotoxic concentration (CC50). The selectivity index (SI) is calculated as the ratio of CC50 to EC50.
# Calu-3 cells = conditions: MTT
# Method: Calu-3 cells. Calu-3 cells were either mock-infected or infected with SARS-CoV-2 (MOI, 0.1)
# (§1) On Day 1 after treatment, the viral S protein was labeled with its specific antibody for an
# immunofluorescence assay, while mock-infected cells were incubated with MTT. Antiviral
# (§2) activity was determined by calculating the percentage inhibition of the S protein level relative
# to that in SARS-CoV-2-infected, DMSO-treated cells (red line). Cell viability was determined
# by measuring cell metabolic activity using MTT relative to naive cells (black line). All values
# (§3) are represented as the mean ± SEM from three independent experiments.
# SARS-CoV-2 [5] = experiment: Antiviral activity assay (anti-S immunofluorescence) in Calu-3 cells; conditions: Severe acute respiratory syndrome coronavirus 2, Calu-3, 24 h
# From the text: These mixtures were serially diluted threefold, eight times, in EMEM and used to treat SARS-CoV-2-infected Calu-3 cells (MOI of 0.01). On day 1, cells were immunostained with an anti-S-antibody and its fluorescently labeled secondary antibody to estimate the two fractional EC50s (FEC50s) for each drug combination, as well as their sum (ΣFEC50). The interaction was defined as synergistic when the ΣFEC50 value was less than 0.8 ([27]).
# Calu-3 cells were either mock-infected or infected with SARS-CoV-2 (MOI, 0.1)
# as §1
# immunofluorescence assay, while mock-infected cells were incubated with MTT.
# as §2
# to that in SARS-CoV-2-infected, DMSO-treated cells (red line).
# as §3
# [6] = system: endo-lysosomal vesicles of Vero cells; experiment: Acridine orange staining of endo-lysosomal vesicle pH in Vero cells; type: cell-based; conditions: 10 µM, 1 h at 37°C
# Method: To monitor pH changes in endo-lysosomal vesicles, Vero cells (8 × 10^4 cells per 35 mm dish) were treated with either DMSO or 10 µM diphenoxylate for 1 h at 37°C. After washing with PBS, they were stained with acridine orange (8 µg/mL) for an additional 30 min. With excitation at 488 nm, live cell images were scanned at two wide-band emission wavelength ranges: 493–560 nm (green) and 590–720 nm (red). All fluorescent images were obtained using a Zeiss LSM 700 confocal microscope and analyzed with ZEN software (Carl Zeiss, Thornwood, NY, USA).
# Fig 4 Deacidification of endo-lysosomal vesicles by diphenoxylate. Vero cells were treated with DMSO as a mock control (upper), or with 10 µM diphenoxylate (lower), at 37°C for 1 h. […] Fluorescence images were acquired after excitation at 488 nm, at two different emission wavelengths: 493–560 nm (green; left) and 590–720 nm (red; middle). The images were merged (right) to distinguish acidic (red) and neutralized cytoplasmic vesicles (green or yellow) based on the red-to-green fluorescence intensity ratio. […]
# Figure S2. […] After excitation at 488 nm, fluorescence images were acquired at two different emission wavelengths: 493-560 nm (green; left) and 590-720 nm (red; middle). The images were merged (right) to distinguish acidic (red) and neutralized cytoplasmic vesicles (green or yellow) based on the red-to-green fluorescence intensity ratio. […]
# [7] = mice
# in vivo = conditions: male, ICR, mouse, iv, 5 mg/kg, T1/2, terminal half-life in plasma, mice, diphenoxylate 5 mg/kg intravenously, analyte in plasma, mean ± SEM, three mice
# SARS-CoV-2 [8] = type: cell-based; conditions: Vero cells; 1, 10 and 100 µM; day 1
# SARS-CoV-2 [9] = type: cell-based
# SARS-CoV-2 [10] = type: cell-based; conditions: Calu-3 cells, day 2
# SARS-CoV-2 [11] = experiment: Antiviral assay using human tonsil organoids (RT-PCR of supernatants); type: cell-based; conditions: day 2
# SARS-CoV-2 [12] = type: cell-based; remark: listed apart in the source
# SARS-CoV-2 [13] = experiment: Confocal microscopy of viral N protein distribution (endocytic uptake) in Vero cells; type: cell-based; conditions: 10 or 30 µM
# SARS-CoV-2 [14] = type: cell-based; conditions: Calu-3 cells; 0.001–100 µM; day 2
structure (smiles),measurement,setting,value
OC(CCN1CCCCC1)(c1ccccc1)c1ccccc1 [pridinol],EC50,[1],~96.4 µM
CN(C)c1ccc2cc3ccc(N(C)C)cc3nc2c1 [acridine orange],pKa,[2],approximately 9.65
CC(C)C(=O)OC[C@H]1O[C@@H](n2ccc(NO)nc2=O)[C@H](O)[C@@H]1O [molnupiravir],"viral RNA levels in lungs (qRT-PCR, S gene)","SARS-CoV-2 [3]; hACE2 transgenic mice, 50 mg/kg/day oral, BID, […]",significantly reduced
"COC(=O)C1=C(C)NC(C)=C(C(=O)OCCN2CCN(C(c3ccccc3)c3ccccc3)CC2)C1c1cccc([N+](=O)[O-])c1 (stereo not drawn) [Manidipine, manidipine]","SI, selectivity index, ratio of CC50 to EC50",[1],1.7
same,EC50,[1],26.8 ± 1.1 µM
same,nuclei numbers compared to the control,SARS-CoV-2 [4],80%–120%
same,reduction of S protein expression level,SARS-CoV-2 [4],over 90%
same,CC50,in vitro,46.6 ± 0.5 µM
N=C(N)c1ccc2cc(OC(=O)c3ccc(N=C(N)N)cc3)ccc2c1 [nafamostat],cytotoxicity at the highest tested concentration,Calu-3 cells; 300 nM,no cytotoxicity
same,EC50,SARS-CoV-2 [5],0.0035 ± 0.0005 µM
"Fc1ccc(C(c2ccc(F)cc2)N2CCN(C/C=C/c3ccccc3)CC2)cc1 [Flunarizine, flunarizine]","SI, selectivity index, ratio of CC50 to EC50",[1],2.4
same,EC50,[1],12.9 ± 5.7 µM
same,nuclei numbers compared to the control,SARS-CoV-2 [4],80%–120%
same,reduction of S protein expression level,SARS-CoV-2 [4],over 90%
same,CC50,in vitro,30.6 ± 1.8 µM
"N#CC(CCN1CCC(C(=O)O)(c2ccccc2)CC1)(c1ccccc1)c1ccccc1 [Difenoxin, difenoxin]",EC50,[1],> 100 µM
same,effect on acidic pH of endo-lysosomal vesicles,[6],failed to deacidify endo-lysosomes
same,"T1/2, terminal half-life in plasma","[7]; diphenoxylate 5 mg/kg intravenously, analyte in plasma, mean ± SEM, three mice",3.6 ± 0.2 h
same,half-life,in vivo,384 min
same,CC50,in vitro,> 100 µM
"Cc1cccc(CN2CCN(C(c3ccccc3)c3ccc(Cl)cc3)CC2)c1 (stereo not drawn) [Meclizine, meclizine]","SI, selectivity index, ratio of CC50 to EC50",[1],4.2
same,EC50,[1],21.4 ± 3 µM
same,nuclei numbers compared to the control,SARS-CoV-2 [4],80%–120%
same,reduction of S protein expression level,SARS-CoV-2 [4],over 90%
same,CC50,in vitro,89.5 ± 4.4 µM
"CCC(CC)COC(=O)[C@H](C)N[P@](=O)(OC[C@H]1O[C@@](C#N)(c2ccc3c(N)ncnn23)[C@H](O)[C@@H]1O)Oc1ccccc1 [RDV, remdesivir]",EC50,[1],7.6 ± 1.2 µM
same,levels of S2 and additional S cleavage products (Western blot),SARS-CoV-2 [8],dose-dependently reduced
same,viral RNA copy numbers in culture supernatants,SARS-CoV-2 [9],efficiently suppressed
same,reduction of viral RNA levels in culture supernatants,SARS-CoV-2 [10]; concentration not given,exceeding four logs
same,reduction in viral RNA levels in culture supernatants,SARS-CoV-2 [11]; 10 µM,between one and two logs
same,CC50,in vitro,> 100 µM
"CCOC(=O)C1(c2ccccc2)CCN(CCC(C#N)(c2ccccc2)c2ccccc2)CC1 [Diphenoxylate, diphenoxylate]","SI, selectivity index, ratio of CC50 to EC50",[1],>71.4
same,EC50,[1],1.4 ± 1.1 µM
same,nuclei numbers compared to the control,SARS-CoV-2 [4],80%–120%
same,reduction of S protein expression level,SARS-CoV-2 [4],over 90%
same,levels of S2 and additional S cleavage products (Western blot),SARS-CoV-2 [8],dose-dependently reduced
same,viral RNA copy numbers in culture supernatants,SARS-CoV-2 [9],efficiently suppressed
same,reduction in plaque numbers,SARS-CoV-2 [12],approximately two-log reduction; also recorded: substantial reduction; also recorded: not under the post-treatment condition
same,reduction in plaque numbers,"SARS-CoV-2 [12]; 20 µM, co-treatment (pre-incu), 30 min preincubation with virus",substantial reduction
same,effect on receptor-mediated endocytosis of SARS-CoV-2 (N protein localisation),SARS-CoV-2 [13],inhibits receptor-mediated endocytosis of SARS-CoV-2
same,effect on acidic pH of endo-lysosomal vesicles,[6],neutralizes the acidic environment of endo-lysosomal organelles
same,expression of viral proteins S and N (Western blot),SARS-CoV-2 [14],suppressed the expression of viral proteins S and N dose dependently
same,decrease of viral RNA levels in culture supernatants,SARS-CoV-2 [10]; 10 µM,one
same,reduction in viral RNA levels in culture supernatants,SARS-CoV-2 [11]; 100 µM,between one and two logs
same,reduction of viral RNA copy number in the lungs,"SARS-CoV-2 [3]; hACE2 transgenic mice, […], on day 3, 10 mg/kg/day",70%
same,"viral RNA levels in lungs (qRT-PCR, S gene)","SARS-CoV-2 [3]; mouse, in vivo, 10 mg/kg/day",significantly reduced
same,cytotoxicity at the highest tested concentration,Calu-3 cells; 300 µM,no cytotoxicity
same,fraction converted into difenoxin,"[7]; within 30 min after intravenous injection, 5 mg/kg",approximately 90%
same,half-life,in vivo,384 ± 54 min
same,CC50,in vitro,> 100 µM
same,EC50,SARS-CoV-2 [5],21.9 ± 2.1 µM
